Results taken from ChEMBL document CHEMBL4342421, “Current scenario of tetrazole hybrids for antibacterial activity” (Eur J Med Chem, 2019).
Values after ≈ are worked out from the molar mass of the structure shown. Values belong to the compound of their own block, whether it stands above or below them.

Tests used:
Bacillus subtilis [1] = test: Potency index, ratio of streptomycin MIC to test compound MIC for antimicrobial activity against Bacillus subtilis; format: functional
Pseudomonas aeruginosa [2] = test: Potency index, ratio of streptomycin MIC to test compound MIC for antimicrobial activity against Pseudomonas aeruginosa; format: functional
Bacillus subtilis [3] = test: Antimicrobial activity against Bacillus subtilis; format: functional
Escherichia coli [4] = test: Potency index, ratio of streptomycin MIC to test compound MIC for antimicrobial activity against Escherichia coli; format: functional
Staphylococcus aureus [5] = test: Antimicrobial activity against Staphylococcus aureus; format: functional
Escherichia coli [6] = test: Antimicrobial activity against Escherichia coli; format: functional
Pseudomonas aeruginosa [7] = test: Antimicrobial activity against Pseudomonas aeruginosa; format: functional
Escherichia coli [8] = test: Antimicrobial activity against Escherichia coli assessed as zone of inhibition at 5 mg/ml after 24 to 48 hrs by well diffusion method; format: functional; settings: read-out: IZ
Staphylococcus aureus [9] = test: Antimicrobial activity against Staphylococcus aureus assessed as zone of inhibition at 5 mg/ml after 24 to 48 hrs by well diffusion method; format: functional; settings: read-out: IZ
Bacillus subtilis [10] = test: Antimicrobial activity against Bacillus subtilis assessed as zone of inhibition at 5 mg/ml after 24 to 48 hrs by well diffusion method; format: functional; settings: read-out: IZ
Pseudomonas aeruginosa [11] = test: Antimicrobial activity against Pseudomonas aeruginosa assessed as zone of inhibition at 5 mg/ml after 24 to 48 hrs by well diffusion method; format: functional; settings: read-out: IZ
Staphylococcus aureus [12] = test: Antimicrobial activity against Staphylococcus aureus assessed as zone of inhibition at 100 ug/ml; format: functional; settings: read-out: IZ
Bacillus subtilis [13] = test: Antimicrobial activity against Bacillus subtilis assessed as zone of inhibition at 100 ug/ml; format: functional; settings: read-out: IZ
Streptococcus = test: Antimicrobial activity against Streptococcus assessed as zone of inhibition at 100 ug/ml; format: functional; settings: read-out: IZ
Escherichia coli [14] = test: Antimicrobial activity against Escherichia coli assessed as zone of inhibition at 100 ug/ml; format: functional; settings: read-out: IZ
[15] = Half life in rat; format: ADME; settings: in vivo
[16] = AUC in rat; format: ADME; settings: in vivo
Aspergillus flavus = test: Antifungal activity against Aspergillus flavus; format: functional
[17] = system: Talaromyces purpureogenus; test: Antifungal activity against Penicillium purpurogenum; format: functional
Trichothecium roseum = test: Antifungal activity against Trichothecium roseum; format: functional
Bacillus cereus = test: Antimicrobial activity against Bacillus cereus; format: functional
Proteus mirabilis = test: Antimicrobial activity against Proteus mirabilis; format: functional
[18] = system: Staphylococcus epidermidis; test: Antimicrobial activity against Staphylococcus epidermidis; format: functional
Aspergillus niger = test: Antifungal activity against Aspergillus niger; format: functional
Candida albicans = test: Antifungal activity against Candida albicans; format: functional

MIC (Bacillus subtilis [3]): 100 µg/mL (≈ 296 µM)
MIC (Staphylococcus aureus [5]): 100 µg/mL (≈ 296 µM)
MIC (Escherichia coli [6]): 100 µg/mL (≈ 296 µM)
MIC (Pseudomonas aeruginosa [7]): 100 µg/mL (≈ 296 µM)
Compound: O=c1c(OCc2nnn[nH]2)c(-c2ccc(F)cc2)oc2ccccc12
Ratio (Bacillus subtilis [1]): 2 - 4
Ratio (Pseudomonas aeruginosa [2]): 2 - 4
Ratio (Escherichia coli [4]): 2 - 4

t1/2 [15]: 3.46 h
AUC [16]: 5500 ng·h/mL
Compound: C[C@@H](O)[C@H]1C(=O)N2C(C(=O)O)=C(SCCN=CN)C[C@H]12 [IMIPENEM ANHYDROUS]

More lines, now with the values behind:

Compound: Cc1c(-c2cc(-c3ccccc3)nc3nnnn23)cnn1-c1ccccc1
zone of inhibition at 5000 µg/mL (Escherichia coli [8]): 13.7 to 18.6 mm
zone of inhibition at 5000 µg/mL (Staphylococcus aureus [9]): 13.7 to 18.6 mm
zone of inhibition at 5000 µg/mL (Bacillus subtilis [10]): 13.7 to 18.6 mm
zone of inhibition at 5000 µg/mL (Pseudomonas aeruginosa [11]): 13.7 to 18.6 mm

Compound: Clc1cccc(-c2nnc(SCc3ccc(-c4ccccc4-c4nn[nH]n4)cc3)o2)c1
zone of inhibition at 100 µg/mL (Staphylococcus aureus [12]): 20 to 27 mm
zone of inhibition at 100 µg/mL (Bacillus subtilis [13]): 20 to 27 mm
zone of inhibition at 100 µg/mL (Streptococcus): 20 to 27 mm
zone of inhibition at 100 µg/mL (Escherichia coli [14]): 20 to 27 mm

Compound: N=C(N)Nc1nnn(Cc2cccc(Cn3nnc(C(=N)N)n3)c2)n1
MIC (Aspergillus flavus): 30 to 40 µg/mL (≈ 87.9 to 117 µM)
MIC [17]: 30 to 40 µg/mL (≈ 87.9 to 117 µM)
MIC (Bacillus subtilis [3]): 30 to 40 µg/mL (≈ 87.9 to 117 µM)
MIC (Trichothecium roseum): 30 to 40 µg/mL (≈ 87.9 to 117 µM)
MIC (Bacillus cereus): 30 to 40 µg/mL (≈ 87.9 to 117 µM)
MIC (Escherichia coli [6]): 30 to 40 µg/mL (≈ 87.9 to 117 µM)
MIC (Pseudomonas aeruginosa [7]): 30 to 40 µg/mL (≈ 87.9 to 117 µM)

Compound: COc1ccc(C2=NN(C(N)=S)C(c3cc4cc(C)ccc4n4nnnc34)C2)cc1 (stereo unspecified)
MIC (Proteus mirabilis): 3.12 to 25 µg/mL (≈ 7.49 to 59.9 µM)
MIC [18]: 3.12 to 25 µg/mL (≈ 7.49 to 59.9 µM)
MIC (Aspergillus niger): 3.12 to 25 µg/mL (≈ 7.49 to 59.9 µM)
MIC (Staphylococcus aureus [5]): 3.12 to 25 µg/mL (≈ 7.49 to 59.9 µM)
MIC (Escherichia coli [6]): 3.12 to 25 µg/mL (≈ 7.49 to 59.9 µM)
MIC (Candida albicans): 3.12 to 25 µg/mL (≈ 7.49 to 59.9 µM)
MIC (Pseudomonas aeruginosa [7]): 3.12 to 25 µg/mL (≈ 7.49 to 59.9 µM)
